Patent US10582709B2, “Butyrolactones as herbicides” (FMC Corporation, priority 2015, dated 2020)

These compounds were tested on kochia (Kochia scoparia) (assay: Test A postemergence, kochia). Details: 125 g ai/ha, visual rating after approx. 10 d, 0 to 100 scale, 0 no effect, 100 complete control.
Format: in vivo
From the text: (§1) Seeds of plant species selected from barnyardgrass (Echinochloa crus-galli), crabgrass (large crabgrass, Digitaria sanguinalis), kochia (Kochia scoparia), ragweed (common ragweed, Ambrosia elatior), morningglory (Ipomoea spp.), velvetleaf (Abutilon theophrasti), ryegrass, Italian (Italian ryegrass, Lolium multiflorum), foxtail, giant (giant foxtail, Setaria faberii), wheat (Triticum aestivum), corn (Zea mays), and pigweed (Amaranthus retroflexus), were planted into a blend of loam soil and sand and treated preemergence with a directed soil spray using test chemicals formulated in a non-phytotoxic solvent mixture which included a surfactant. At the same time, plants selected from these crop and weed species and also blackgrass (Alopecurus myosuroides), and galium (catchweed bedstraw, Galium aparine), were planted in pots containing the same blend of loam soil and sand and treated with postemergence applications of test chemicals formulated in the same manner. Plants ranged in height from 2 to 10 cm and were in the one- to two-leaf stage for the postemergence treatment. Treated plants and untreated controls were maintained in a greenhouse for approximately 10 d, after which time all treated plants were compared to untreated controls and visually evaluated for injury. Plant response ratings, summarized in Table A, are based on a 0 to 100 scale where 0 is no effect and 100 is complete control. A dash (-) response means no test result.

Compound	Plant response rating, Kochia
O=C(Nc1cccc(F)c1F)C1C(=O)OCC1c1ccc(C(F)(F)F)cc1 (racemic) [Compound 7]	0

Same assay, conditions: 500 g ai/ha, visual rating after approx. 10 d, 0 to 100 scale, 0 no effect, 100 complete control

Compound	Plant response rating, Kochia
O=C(Nc1cccc(F)c1F)C1C(=O)OCC1c1ccc(C(F)(F)F)cc1 (racemic) [Compound 7]	0

These compounds were tested on foxtail, giant (giant foxtail, Setaria faberii) (assay: Test A postemergence, giant foxtail). Details: 125 g ai/ha, visual rating after approx. 10 d, 0 to 100 scale, 0 no effect, 100 complete control.
Format: in vivo
From the text: as §1

Compound	Plant response rating, Foxtail, Giant
O=C(Nc1cccc(F)c1F)C1C(=O)OCC1c1ccc(C(F)(F)F)cc1 (racemic) [Compound 7]	20

Same assay, conditions: 500 g ai/ha, visual rating after approx. 10 d, 0 to 100 scale, 0 no effect, 100 complete control

Compound	Plant response rating, Foxtail, Giant
O=C(Nc1cccc(F)c1F)C1C(=O)OCC1c1ccc(C(F)(F)F)cc1 (racemic) [Compound 7]	50

What follows are compounds tested on kochia (Kochia scoparia) (assay: Test A preemergence, kochia). Details: 125 g ai/ha, visual rating after approx. 10 d, 0 to 100 scale, 0 no effect, 100 complete control.
Format: in vivo
From the text: as §1

Compound	Plant response rating, Kochia
O=C(Nc1cccc(F)c1F)C1C(=O)OCC1c1ccc(C(F)(F)F)cc1 (racemic) [Compound 7]	0

Same assay, conditions: 500 g ai/ha, visual rating after approx. 10 d, 0 to 100 scale, 0 no effect, 100 complete control

Compound	Plant response rating, Kochia
O=C(Nc1cccc(F)c1F)C1C(=O)OCC1c1ccc(C(F)(F)F)cc1 (racemic) [Compound 7]	0

The compounds below were run on pigweed (Amaranthus retroflexus) (assay: Test A postemergence, pigweed). Details: 125 g ai/ha, visual rating after approx. 10 d, 0 to 100 scale, 0 no effect, 100 complete control.
Format: in vivo
From the text: as §1

Compound	Plant response rating, Pigweed
O=C(Nc1cccc(F)c1F)C1C(=O)OCC1c1ccc(C(F)(F)F)cc1 (racemic) [Compound 7]	0

Same assay, conditions: 500 g ai/ha, visual rating after approx. 10 d, 0 to 100 scale, 0 no effect, 100 complete control

Compound	Plant response rating, Pigweed
O=C(Nc1cccc(F)c1F)C1C(=O)OCC1c1ccc(C(F)(F)F)cc1 (racemic) [Compound 7]	0

What follows are compounds tested on foxtail, giant (giant foxtail, Setaria faberii) (assay: Test A preemergence, giant foxtail). Details: 125 g ai/ha, visual rating after approx. 10 d, 0 to 100 scale, 0 no effect, 100 complete control.
Format: in vivo
From the text: as §1

Compound	Plant response rating, Foxtail, Giant
O=C(Nc1cccc(F)c1F)C1C(=O)OCC1c1ccc(C(F)(F)F)cc1 (racemic) [Compound 7]	30

Same assay, conditions: 500 g ai/ha, visual rating after approx. 10 d, 0 to 100 scale, 0 no effect, 100 complete control

Compound	Plant response rating, Foxtail, Giant
O=C(Nc1cccc(F)c1F)C1C(=O)OCC1c1ccc(C(F)(F)F)cc1 (racemic) [Compound 7]	80

What follows are compounds tested on ducksalad (Heteranthera limosa) (assay: Test B flooded paddy test, ducksalad). Details: 250 g ai/ha; applied to paddy water at 2-leaf stage; 13 to 15 d; scale 0 no effect to 100 complete control.
Format: in vivo
Protocol: (§2) Plant species in the flooded paddy test selected from rice (Oryza sativa), sedge, umbrella (small-flower umbrella sedge, Cyperus difformis), ducksalad (Heteranthera limosa), and barnyardgrass (Echinochloa crus-galli) were grown to the 2-leaf stage for testing. At time of treatment, test pots were flooded to 3 cm above the soil surface, treated by application of test compounds directly to the paddy water, and then maintained at that water depth for the duration of the test. Treated plants and controls were maintained in a greenhouse for 13 to 15 d, after which time all species were compared to controls and visually evaluated. Plant response ratings, summarized in Table B, are based on a scale of 0 to 100 where 0 is no effect and 100 is complete control. A dash (-) response means no test result.

Compound	Plant response rating, Flood, Ducksalad
O=C(Nc1cccc(F)c1F)C1C(=O)OCC1c1ccc(C(F)(F)F)cc1 (racemic) [Compound 7]	30

Same assay, conditions: 1000 g ai/ha; applied to paddy water at 2-leaf stage; 13 to 15 d; scale 0 no effect to 100 complete control

Compound	Plant response rating, Flood, Ducksalad
O=C(Nc1cccc(F)c1F)C1C(=O)OCC1c1ccc(C(F)(F)F)cc1 (racemic) [Compound 7]	40

Each compound was assayed on ragweed (common ragweed, Ambrosia elatior) (assay: Test A postemergence, ragweed). Details: 125 g ai/ha, visual rating after approx. 10 d, 0 to 100 scale, 0 no effect, 100 complete control.
Format: in vivo
From the text: as §1

Compound	Plant response rating, Ragweed
O=C(Nc1cccc(F)c1F)C1C(=O)OCC1c1ccc(C(F)(F)F)cc1 (racemic) [Compound 7]	0

Same assay, conditions: 500 g ai/ha, visual rating after approx. 10 d, 0 to 100 scale, 0 no effect, 100 complete control

Compound	Plant response rating, Ragweed
O=C(Nc1cccc(F)c1F)C1C(=O)OCC1c1ccc(C(F)(F)F)cc1 (racemic) [Compound 7]	0

What follows are compounds tested on pigweed (Amaranthus retroflexus) (assay: Test A preemergence, pigweed). Details: 125 g ai/ha, visual rating after approx. 10 d, 0 to 100 scale, 0 no effect, 100 complete control.
Format: in vivo
From the text: as §1

Compound	Plant response rating, Pigweed
O=C(Nc1cccc(F)c1F)C1C(=O)OCC1c1ccc(C(F)(F)F)cc1 (racemic) [Compound 7]	0

Same assay, conditions: 500 g ai/ha, visual rating after approx. 10 d, 0 to 100 scale, 0 no effect, 100 complete control

Compound	Plant response rating, Pigweed
O=C(Nc1cccc(F)c1F)C1C(=O)OCC1c1ccc(C(F)(F)F)cc1 (racemic) [Compound 7]	0

What follows are compounds tested on rice (Oryza sativa) (assay: Test B flooded paddy test, rice). Details: 250 g ai/ha; applied to paddy water at 2-leaf stage; 13 to 15 d; scale 0 no effect to 100 complete control.
Format: in vivo
Protocol: as §2

Compound	Plant response rating, Flood, Rice
O=C(Nc1cccc(F)c1F)C1C(=O)OCC1c1ccc(C(F)(F)F)cc1 (racemic) [Compound 7]	0

Same assay, conditions: 1000 g ai/ha; applied to paddy water at 2-leaf stage; 13 to 15 d; scale 0 no effect to 100 complete control

Compound	Plant response rating, Flood, Rice
O=C(Nc1cccc(F)c1F)C1C(=O)OCC1c1ccc(C(F)(F)F)cc1 (racemic) [Compound 7]	0

What follows are compounds tested on wheat (Triticum aestivum) (assay: Test A postemergence, wheat). Details: 125 g ai/ha, visual rating after approx. 10 d, 0 to 100 scale, 0 no effect, 100 complete control.
Format: in vivo
From the text: as §1

Compound	Plant response rating, Wheat
O=C(Nc1cccc(F)c1F)C1C(=O)OCC1c1ccc(C(F)(F)F)cc1 (racemic) [Compound 7]	0

Same assay, conditions: 500 g ai/ha, visual rating after approx. 10 d, 0 to 100 scale, 0 no effect, 100 complete control

Compound	Plant response rating, Wheat
O=C(Nc1cccc(F)c1F)C1C(=O)OCC1c1ccc(C(F)(F)F)cc1 (racemic) [Compound 7]	0
